Usually NOAEL stands for the highest dose or exposure tested at which no adverse effect was seen.

Series [1] can be described thus: Stability in human plasma. Particulars: 10 μM, 1 h at 37°C. The series is classed as in vitro ADME. On the procedure: (§1) Human and mouse liver microsomes and NADPH regenerating system solutions were purchased from Corning Life Sciences (Tewsbury, MA). Human and mouse K2EDTA-treated plasma was purchased from BioIVT (Westbury, NY). Metabolic studies in liver microsomes (0.125 mg/mL) were conducted in 1x PBS (pH 7.4), NADPH-generating system, and 10 μM RA475 in a final volume of 250 μL. An incubation mixture with or without NADPH-generating system, as well as a neat solution prepared without microsomes and NADPH-generating system was used. RA475 was added at the same concentration level into human and mouse EDTA plasma. All reactions were initiated with the addition of RA475. Incubations were performed in glass tubes maintained at 37°C in a shaker bath. At 0, 30, and 60 min, 10 μL samples were withdrawn from the reaction mixture, and 0.5 mL of acetonitrile containing internal standard was added to each. Samples were vortex-mixed and subjected to centrifugation for 5 min at 1430 x g. A 10 μL aliquot of the supernatant was injected onto the LC-MS/MS instrument for qualitative analysis using a temperature-controlled autosampling device operating at 5°C (See Pharmacokinetic section).

A short description of series [2]: Single increasing dose tolerability in CD-1 mice, IP. Particulars: CD-1, mouse, in vivo; mice, single dose, IP. The series is classed as in vivo, mouse. On the procedure:
(§2) RA475 in 25% β-hydroxy propyl cyclodextrin in water was administered at increasing single doses to CD-1 mice (n = 3/group) via intraperitoneal injection.

Series [3] has as its system CD-1 mice. The series is described as above. Type of series: in vivo, mouse. Particulars: CD-1 mice, single IP doses at or below 80 mg/Kg. On the procedure: as §2
Series [4] has as its system 4UbFL in HCC1806 cells. Kind of series: 4UbFL reporter assay, HCC1806. Type of series: cell-based. The following applies: HCC1806 stably expressing 4UbFL, 4 h. As for the experimental part:
(§3) Sub-confluent cultures of cells were transfected with 4UbFL plasmid using TransIT 2020 reagent (Mirus Bio). Cells were seeded at 10,000 cells/well in 96-well plates 48 h post transfection, and incubated with compounds or vehicle (DMSO) at the doses and for the times indicated. Luciferase activity in cell lysate was determined with a luciferase assay kit (Promega) according to the manufacturer’s instructions. Bioluminescence was measured using a Glomax Multidetection system (Promega).
(§4) Fig 3 Impact of RA475 on proteasome function. […] Actin was used as loading control. […] After a 4 h incubation, the cells were lysed and the luciferase activity in each cell lysate was determined with a luciferase assay kit (Promega) according to the manufacturer’s instructions. Bioluminescence was measured by using a luminometer (Glomax Multidetection system, Promega) E) A patch was shaved of hair on one leg of CD-1 mice, and 10 μg 4UbFL plasmid in 20 μL of PBS was injected into the quadriceps femoralis muscle followed immediately by injection of the 2 Needle Array to 5 mm depth encompassing the injection site and square wave electroporation (ElectroSquarePorator 833, BTX-2 Needle array 5mm gap, Harvard apparatus) delivered as eight pulses at 106V for 20 ms with 200 ms intervals. […] Equally sized areas were analyzed using Living Image 2.20 software. […]

Series [5] deals with 4UbFL in 4T1 cells. Kind of series: 4UbFL reporter assay, 4T1. The series is classed as cell-based. The following applies: 4T1 stably expressing 4UbFL, 4 h. On the procedure: as §3, §4
For orientation: A reporter such as luciferase makes a cellular process visible.

For series [6], the target named is human serum albumin protein (Homo sapiens, UniProt P02768). As to the kind of experiment: Human serum albumin protein binding. Particulars: 1 μM, dialysis 5 h. The series is classed as in vitro ADME. As for the experimental part: The assay was performed in a multiple-use 96-well dialysis unit (HTD96b dialyzer). Each individual well unit consisted of 2 chambers separated by a vertically aligned dialysis membrane of predetermined pore size (MWCO 12–14 kDa). 120 μL of non-diluted plasma spiked with the compound (1 μM, final DMSO concentration 1%) was added to one chamber, and the same volume of PBS buffer pH 7.4 to the other chamber. The HTD96b dialyzer was covered with adhesive sealing film and incubated 5 h at 37°C while shaking at 100 rpm. For sample preparation, an aliquot of the contents of each chamber was mixed with the same volume of the blank opposite matrix. In order to define non-specific loss of the compound during this assay, a standard solution was created by mixing an aliquot of spiked plasma with blank buffer without dialysis. Two aliquots of the standard solution were incubated at 37°C, shaking at 100 rpm for 5 h (recovery samples). The other two aliquots were immediately diluted with acetonitrile and stored at 4°C until analysis (stability samples). All samples were diluted 5-fold with internal standard diluted in 100% methanol with subsequent plasma proteins sedimentation by centrifuging at 6000 rpm for 5 minutes. Supernatants were analyzed using LC-MS/MS. The percentage of plasma protein bound compound, recovery and stability were calculated using following equations. […]

A short description of series [7]: Stability in mouse liver microsomes. Type of series: in vitro ADME. The following applies: with or without NADPH, over 1 h. On the procedure:
as §1
For orientation: Liver microsomes are a subcellular fraction often used to study metabolism.

On the set-up of series [8]: method as in PMID 37315065. Particulars: mice; cited from earlier work.
The conditions of series [9]: 1 h; Up284 not in this paper's method, no reference at the place; cited from earlier work.

Structures are written as SMILES. Bounds are passed on as bounds.

Sequence of human serum albumin protein (P02768 25-609): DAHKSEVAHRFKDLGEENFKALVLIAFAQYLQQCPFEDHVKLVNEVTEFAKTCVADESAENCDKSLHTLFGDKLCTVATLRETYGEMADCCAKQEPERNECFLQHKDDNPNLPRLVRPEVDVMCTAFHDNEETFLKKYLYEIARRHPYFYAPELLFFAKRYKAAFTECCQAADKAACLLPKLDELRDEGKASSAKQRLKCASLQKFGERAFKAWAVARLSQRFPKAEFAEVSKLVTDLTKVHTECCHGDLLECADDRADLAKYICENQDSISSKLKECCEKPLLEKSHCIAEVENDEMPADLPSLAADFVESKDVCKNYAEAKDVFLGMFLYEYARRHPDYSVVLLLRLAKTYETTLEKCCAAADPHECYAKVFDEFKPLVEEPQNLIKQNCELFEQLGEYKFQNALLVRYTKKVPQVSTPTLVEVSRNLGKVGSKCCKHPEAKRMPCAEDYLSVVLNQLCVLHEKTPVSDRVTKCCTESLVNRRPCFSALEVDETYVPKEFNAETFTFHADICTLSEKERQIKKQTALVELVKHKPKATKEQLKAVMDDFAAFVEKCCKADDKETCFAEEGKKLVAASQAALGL

As for `Cl.Cl.N#Cc1ccc(/C=C2/C(=O)/C(=C/c3ccc(C#N)cc3)C23CCN(C(=N)N)CC3)cc1` [RA475, 1,3-bis((E)-4-cyanobenzylidene)-2-oxo-7-azaspiro[3.5]nonane-7-carboximidamide dihydrochloride], the stability in plasma entry in series [1] was “did not degrade”. The same compound displayed an NOAEL in series [2] of over 80 mg/kg. In [3], the “adverse events, including weight loss” value is reported as “No evidence of adverse events”. Also, the 4UbFL bioluminescence signal entry in series [4] and in [5] was “dose dependent increases in bioluminescence signal” throughout. The “binding to human serum albumin protein” value in [6] was 93.8%. The “degradation in liver microsomes” value in [7] is reported as under 10%.
Take `N#Cc1ccc(/C=C2/C(=O)/C(=C/c3ccc(C#N)cc3)C23CCNCC3)cc1` [Up284, reference compound]: in [8], the IP bioavailability was 87% and the oral bioavailability is listed as 23%. Besides, in series [9], the “present after 1 h in liver microsomes” value was 52%.

Values taken from paper PMC11239005, “Preclinical studies of RA475, a guanidine-substituted spirocyclic candidate RPN13/ADRM1 inhibitor for treatment of ovarian cancer” (PLOS ONE, 2024).
